Columns and labels:
[1] = tested on: adjuvant arthritis (AA) in female Lewis rats; test: Treatment of adjuvant arthritis in rats; type: in vivo, rat; settings: oral administration once a day for 12 days; dose-dependent
Procedure: Adjuvant arthritis (AA) is induced in female Lewis rats by the intracutaneous injection (base of the tail) of 0.1 mL of a 10 mg/mL bacterial suspension made from ground, heat-killed Mycobacterium tuberculosis H37Ra suspended in incomplete Freund's adjuvant. Rats are given a test compound orally once a day for 12 days, starting the day following the induction. The development of polyarthritis is monitored daily by macroscopic inspection and assignment of an arthritis index to each animal, during the critical period (days 10 to 25 post-immunization).
The intensity of polyarthritis scored according to the following scheme: (a) Grade each paw from 0 to 3 based on erythema, swelling, and deformity of the joints: 0 for no erythema or swelling; 0.5 if swelling is detectable in at least one joint; 1 for mild swelling and erythema; 2 for swelling and erythema of both tarsus and carpus; and 3 for ankylosis and bony deformity. Maximum score for all 4 paws is thus 12. (b) Grade for other parts of the body: for each ear, 0.5 for redness and another 0.5 if knots are present; 1 for connective tissue swelling (saddle nose); and 1 for the presence of knots or kinks in the tail. The highest possible arthritic index is […].

[2] = tested on: colitis in C.B-17 SCID mice; test: CD4+ CD45Rb high T cell-reconstituted SCID colitis model mice; type: in vivo, mouse
Procedure: Spleen cells are prepared from normal female BALB/c mice. For cell purification, the following anti-mouse antibodies are used to label non-CD4^+ T cells: B220 (RA3-6B2), CD11b (Ml/70), and CD8a (53-6.72). All antibodies are obtained from BioSource (Camarillo, Calif.). M450 anti-rat IgG-coated magnetic beads (Dynal, Oslo, Norway) are used to bind the antibodies and negative selection is accomplished using an MPC-1 magnetic concentrator. The enriched CD4^+ cells are then labeled for cell sorting with FITC-conjugated CD45RB (16A, Pharmingen, San Diego, Calif.) and PE-conjugated CD4 (CT-CD4, Caltag, Burlingame, Calif.). CD4^+ CD45RB^high cells are operationally defined as the upper 40% of CD45Rb-staining CD4^+ cells and sorted under sterile conditions by flow cytometry. Harvested cells are resuspended at 4×10^6/mL in PBS and injected 100 μL intraperitoneally into female C.B-17 SCID mice. Fused heterocyclic compounds of this invention and/or vehicle is orally administered once a day, 5 days per week, starting the day following the transfer. The transplanted SCID mice are weighed weekly and their clinical condition is monitored.
Colon tissue samples are fixed in 10% buffered formalin and embedded in paraffin. Sections (4 μm) collected from ascending, transverse, and descending colon are cut and stained with hematoxylin and eosin. The severity of colitis is determined based on histological examination of the distal colon sections, whereby the extent of colonic inflammation is graded on a scale of 0-3 in each of four criteria: crypt elongation, cell infiltration, depletion of goblet cells, and the number of crypt abscesses.
LP lymphocytes are isolated from freshly obtained colonic specimens. After removal of payer's patches, the colon is washed in Ca/Mg-free HBSS, cut into 0.5 cm pieces and incubated twice in HBSS containing EDTA (0.75 mM), DTT (1 mM), and antibiotics (amphotericin 2.5 μg/mL, gentamicin 50 μg/mL from Sigma) at 37° C. for 15 min. Next, the tissue is digested further in RPMI containing 0.5 mg/mL collagenase D, 0.01 mg/mL DNase I (Boehringer Manheim), and antibiotics at 37° C. LP cells are then layered on a 40-100% Percoll gradient (Pharmacia, Uppsala, Sweden), and lymphocyte-enriched populations are isolated from the cells at the 40-100% interface.
To measure cytokine production, 48-well plates are coated with 10 μg/mL murine anti-CD3ε antibody (145-2C11) in carbonate buffer (PH 9.6) overnight at 4° C. 5×10^5 LP cells are then cultured in 0.5 ml of complete medium in precoated wells in the presence of 1 μg/mL soluble anti-CD28 antibody (37.51). Purified antibodies are obtained from Pharmingen. […] Murine IFNγ is measured using an ELISA kit from Endogen (Cambridge, Mass.), according to the manufacturer's instructions.

[3] = tested on: DNBS-induced distal colitis in Wistar derived rats; test: Dinitrobenzene sulfonic acid-induced inflammatory bowel syndrome model rats; type: in vivo, rat; settings: oral, 24 and 2 hours before DNBS instillation and then daily for 5 days
Procedure: Wistar derived male or female rats weighing 200±20 g and fasted for 24 hours are used. Distal colitis was induced by intra-colonic instillation of 2,4-dinitrobenzene sulfonic acid (DNBS, 25 mg in 0.5 mL ethanol 30%) after which air (2 mL) is gently injected through the cannula to ensure that the solution remained in the colon. A test compound and/or vehicle is administered orally 24 and 2 hours before DNBS instillation and then daily for 5 days. One control group is similarly treated with vehicle alone while the other is treated with vehicle plus DNBS. The animals are sacrificed 24 hours after the final dose of test compound administration and each colon is removed and weighed. Colon-to-body weight ratio is then calculated for each animal according to the formula: Colon (g)/BW×100. The “Net” increase in ratio of Vehicle-control+DNBS group relative to Vehicle-control group is used as a base for comparison with test substance treated groups and expressed as “% Deduction.” Fused heterocyclic compounds of this invention (e.g., Compound 12) reproducibly have about 30% deduction. A 30% or more reduction in colon-to-body weight ratio, relative to the vehicle treated control group, is considered significant.

IL-12 production = test: In vitro assay of Example 12: inhibition of IL-12 production in IFNγ/LPS- or IFNγ/SAC-stimulated cells, ELISA; type: cell-based, human; settings: Homo sapiens; assay of Example 12; if more than one assay was performed, only the most active IC50 result is reported
Excerpt: The biological activities of a compound can be evaluated by a number of cell-based assays. One of such assays can be conducted using cells from human peripheral blood mononuclear cells (PBMC) or human monocytic cell line (THP-1). The cells are stimulated with a combination of human interferon-γ (IFNγ) and lipopolysaccharide or a combination of IFNγ and Staphylococcus aureus Cowan I in the presence of a test compound. The level of inhibition of IL-12 production can be measured by determining the amount of p70 by using a sandwich ELISA assay with anti-human IL-12 antibodies. IC50 of the test compound can then be determined. Specifically, PBMC or THP-1 cells are incubated with the test compound. Cell viability was assessed using the bioreduction of MTS [3-(4,5-dimethylthiazol-2-yl)-5-(3-carboxymethoxyphenyl)-2-(4-sulfophenyl)-2H-tetrazolium] (Promega, Madison, Wis.).
Staphylococcus aureus Cowan I (SAC) is obtained from Calbiochem (La Jolla, Calif.), and lipopolysaccharide (LPS, Serratia marscencens) is obtained from Sigma (St. Louis, Mo.). Human and mouse recombinant IFNγ are purchased from Boehringer Mannheim (Mannheim, Germany) and Pharmingen (San Diego, Calif.), respectively.
Human PBMC are isolated by centrifugation using Ficoll-Paque (Pharmacia Biotech, Uppsala, Sweden) and prepared in RPMI medium supplemented with 10% fetal calf serum (FCS), 100 U/mL penicillin, and 100 μg/mL streptomycin. PBMC are plated in wells of a 96-well plate at a concentration of 5×10^5 cells/well, and primed by adding IFNγ (30 U/mL) for 22 h and stimulated by adding LPS (1 μg/mL), or by adding IFNγ (100 U/mL) and then stimulated by adding SAC (0.01%). A test quinazoline compound is dissolved in DMSO, and added to wells of the 96-well plate. The final DMSO concentration is adjusted to 0.25% in all cultures, including the compound-free control. Human THP-1 cells are plated in wells, primed by adding IFNγ (100 U/mL) for 22 h and stimulated by adding SAC (0.025%) in the presence of different concentrations of the quinazoline compound. Cell-free supernatants are taken 18 h later for measurement of cytokines. Cell viability is assessed using the bioreduction of MTS. Cell survival is estimated by determining the ratio of the absorbance in compound-treated groups versus compound-free control.
The supernatant is assayed for the amount of IL-12p40, IL-12p70, or IL-10 by using a sandwich ELISA with anti-human antibodies, i.e., a Human IL-12 p40 ELISA kit from R&D Systems (Berkeley, Calif.), and a Human IL-12 p70 or IL-10 ELISA kit from Endogen (Cambridge, Mass.). Assays are based on the manufacturer's instructions.
The biological activities of quinazoline compounds are tested on human PBMC or THP-1 cells.

Compound | IC50 (IL-12 production) [nM] | further results
Cc1cccc(-c2ccc3nc(OCCN4CCOCC4)nc(N4CCOCC4)c3c2)c1 [Compound 12, 4-Morpholin-4-yl-2-(2-morpholin-4-yl-ethoxy)-6-m-tolyl-quinazoline] | 189 | arthritic score [1]: reproducibly reduces the arthritic score; development of polyarthritis [1]: delayes the development of polyarthritis; IFNγ production by LP cells in response to anti-CD3 and anti-CD28 antibody ([2]; ex vivo LP cells from treated mice): greatly diminishes the production; colon-to-body weight ratio ([2]; oral administration): attenuation; colonic inflammation (histological analysis) ([2]; oral administration, compared to vehicle control): reduce colonic inflammation; colonic inflammation, suppressive effect ([2]; oral, dose of 10 mg/kg): substantial reduction; % Deduction (colon-to-body weight ratio) [3]: about 30%
c1ccc(Nc2ccc3nc(OCCN4CCOCC4)nc(N4CCOCC4)c3c2)cc1 [Compound 14, [4-Morpholin-4-yl-2-(2-morpholin-4-yl-ethoxy)-quinazolin-6-yl]-phenyl-amine] | 3000 | 
COc1ccc(CCOc2nc(N3CCOCC3)c3cc(Nc4ccccc4C)ccc3n2)cc1OC [Compound 41, {2-[2-(3,4-Dimethoxy-phenyl)-ethoxy]-4-morpholin-4-yl-quinazolin-6-yl}-o-tolyl-amine] | > 10000 | 
Cc1ccc(Oc2cnc3nc(OCCN4CCOCC4)nc(N4CCOCC4)c3c2)cc1 [Compound 47, 4-Morpholin-4-yl-2-(2-morpholin-4-yl-ethoxy)-6-p-tolyloxy-pyrido[2,3-d]pyrimidine] | > 1000 | 
COc1ccc(CCOc2nc(N3CCOCC3)c3cc(-c4ccc(C)s4)ccc3n2)cc1OC [Compound 22, 2-[2-(3,4-Dimethoxy-phenyl)-ethoxy]-6-(5-methyl-thiophen-2-yl)-4-morpholin-4-yl-quinazoline] | 3040 | 
COc1ccc(CCOc2nc(N3CCOCC3)c3cc(-c4ccc(F)cc4)ccc3n2)cc1OC [Compound 33, 6-(4-Fluoro-phenyl)-2-[2-(3,4-dimethoxy-phenyl)-ethoxy]-4-morpholin-4-yl-quinazoline] | > 10000 | 
COc1ccc(CCOc2nc(N3CCOCC3)c3cc(-c4cc5ccccc5o4)ccc3n2)cc1OC [Compound 28, 6-Benzofuran-2-yl-2-[2-(3,4-dimethoxy-phenyl)-ethoxy]-4-morpholin-4-yl-quinazoline] | 64 | 
Cc1ccc(-c2cnc3nc(OCCN4CCOCC4)nc(N4CCOCC4)c3c2)cc1C [Compound 44, 6-(3,4-Dimethyl-phenyl)-4-morpholin-4-yl-2-(2-morpholin-4-yl-ethoxy)-pyrido[2,3-d]pyrimidine] | > 10000 | 
COc1ccc(CCOc2nc(N3CCOCC3)c3cc(-c4ccc(C)c(C)c4)ccc3n2)cc1OC [Compound 26, 2-[2-(3,4-Dimethoxy-phenyl)-ethoxy]-6-(3,4-dimethyl-phenyl)-4-morpholin-4-yl-quinazoline] | 107 | 

Second part, led by results:

IC50 (IL-12 production) [nM] | Compound | further results
> 1000 | COc1ccc(CCOc2nc(N3CCOCC3)c3cc(-c4ccc(Cl)cc4)ccc3n2)cc1OC [Compound 30, 6-(4-Chloro-phenyl)-2-[2-(3,4-dimethoxy-phenyl)-ethoxy]-4-morpholin-4-yl-quinazoline] | 
2600 | COc1ccc(CCOc2nc(N3CCOCC3)c3cc(Oc4ccc(C)cc4)ccc3n2)cc1OC [Compound 36, 2-[2-(3,4-Dimethoxy-phenyl)-ethoxy]-4-morpholin-4-yl-6-p-tolyloxy-quinazoline] | 
1430 | COc1ccc(CCOc2nc(N3CCOCC3)c3cc(-c4cccc(C(N)=O)c4)ccc3n2)cc1OC [Compound 24, 3-{2-[2-(3,4-Dimethoxy-phenyl)-ethoxy]-4-morpholin-4-yl-quinazolin-6-yl}-benzamide] | 
189 | COc1ccc(CCOc2nc(N3CCOCC3)c3cc(-c4cccc(C)c4)ccc3n2)cc1OC [Compound 15, 2-[2-(3,4-Dimethoxy-phenyl)-ethoxy]-4-morpholin-4-yl-6-m-tolyl-quinazoline] | 
9900 | COc1ccc(CCOc2nc(N3CCOCC3)c3cc(Oc4cccc(Cl)c4)ccc3n2)cc1OC [Compound 35, 6-(3-Chloro-phenoxy)-2-[2-(3,4-dimethoxy-phenyl)-ethoxy]-4-morpholin-4-yl-quinazoline] | 
